Test results published in paper PMC12163635, “Synthetic Retinoids for the Modulation of Genomic and Nongenomic Processes in Neurodegenerative Diseases” (ACS Omega, 2025).
“Also recorded” adds a separate entry of the source.

Assays:
[1] = test system: ERK1/2 phosphorylation in SH-SY5Y cells; test: ERK1/2 phosphorylation (nongenomic response), AlphaScreen SureFire; assay type: cell-based, human; set-up: nongenomic response Emax (±95% CI): unit not given here; conditions: for EC50: Homo sapiens, read-out: nongenomic response EC50 (±95% CI); for EC50 / induction of ERK1/2 phosphorylation (nongenomic activity) / nongenomic response Emax (±95% CI): SH-SY5Y cells, 1 h; for nongenomic E max compared with ATRA: nonoverlapping 95% CI
Procedure: After screening the retinoids for genomic responses, they were tested for their nongenomic ability to rapidly phosphorylate ERK1/2 in the SH-SY5Y cell line. ATRA is known as a potent activator of ERK1/2 − and was used as the standard for comparison. […] The efficacies of the remaining seven retinoids were similar to ATRA.
(§1) SH-SY5Y cell line as used in ERK phosphorylation and neurite outgrowth assays described below. The cells were grown in DMEM containing 10% FCS at 37 °C with 5% CO2. The medium was changed three times a week and the cells were passaged at 70% confluence using 0.05% trypsin-EDTA.
To quantify ERK1/2 phosphorylation, SH-SY5Y cells (100,000 cells/well) were plated onto 96-well plates and serum-starved for 24 h in DMEM. Cells were assayed in serum-free DMEM and stimulated for 60 min at 37 °C in a humidified atmosphere. Retinoids were tested at concentrations ranging from 10 to 4 to 10–11 M and at a final concentration of 0.1% DMSO. At the end of the assay, the medium was removed, and cells were lysed with lysis buffer supplied in the AlphaScreen SureFire ERK1/2 kit (PerkinElmer). The assay was performed in 384-well white Proxiplates according to the manufacturer’s instructions and using the beads supplied in the protein A general IgG detection kit (PerkinElmer). Briefly, 4 μL samples were incubated with 7 μL of the freshly prepared mixture containing donor and acceptor beads. Plates were incubated at room temperature and read with the Envision system (PerkinElmer Life Sciences) using AlphaScreen settings.
(§2) All data are presented as mean ± SEM of three independent experiments with biological triplicates. Statistical analyses were performed in Microsoft Office Excel 2019 or GraphPad Prism 7.0c version (Prism, GraphPad Software, San Diego, CA). Neurite outgrowth data were analyzed by one-way ANOVA with Newman-Keuls multiple comparison test as appropriate; P value <0.05 was considered statistically significant. *P < 0.05, **P < 0.01. Data for X-Gal and ERK1/2 phosphorylation were analyzed using sigmoidal dose–response analysis of log (agonist) versus response curve (stimulation).

SH-SY5Y cells = test: Neurite outgrowth; assay type: cell-based, human; conditions: 5 days; for induction of neurite outgrowth compared with ATRA: 10 nM; for fold induction at 0.01 µM: Homo sapiens, SH-SY5Y, 120 h, 10 nM compound, in comparison to nontreated cells, read-out: fold increase in neurite outgrowth
Procedure: Following the characterization of retinoids for their genomic and nongenomic activities, the ability of retinoids to differentiate and induce neurite outgrowth in the neuroblastoma cell line, SH-SY5Y cells, was examined (Figure ). Neurite outgrowth can be induced in this cell line by ATRA at 10 μM.
as §1
SH-SY5Y cells were plated at 10,000 cells/well in 12-well plates containing 16 mm acid-treated/poly L-lysine-coated glass coverslips. After 24 h, retinoids were added to the medium and tested at two different concentrations, 10 μM and 10 nM, with a final DMSO concentration of 0.01 or 0.0001%, respectively. The plates were incubated for 5 days at 5% CO2/37 °C. All retinoid concentrations were tested in triplicate. Cells were fixed using 4% paraformaldehyde and stained for β-III tubulin (1:1000; Sigma). For each neurite outgrowth experiment, 3 coverslips (in 3 wells) were used. ImageJ software with the NeuronJ plugin was used to quantify neurite outgrowth on stained cells in each of the 10 randomly selected images of each coverslip taken using a Nikon Eclipse E400 fluorescence microscope. The average neurite length was calculated for each image by dividing total neurite length by the total number of neurites per image.
as §2

| EC50 [1] [nM] | Compound | induction of ERK1/2 phosphorylation (nongenomic activity) [1] | nongenomic response Emax (±95% CI) [1] | nongenomic E max compared with ATRA [1] | induction of neurite outgrowth compared with ATRA (SH-SY5Y cells) | fold induction at 0.01 µM (SH-SY5Y cells) |
| --- | --- | --- | --- | --- | --- | --- |
| 8.54 | CC1(C)CCC(C)(C)c2nc(C#Cc3ccc(C(=O)O)cc3)cnc21 [Compound 30, 4-[2-(5,5,8,8-Tetramethyl-5,6,7,8-tetrahydroquinoxalin-2-yl)ethynyl]benzoic Acid] | showed activity toward the nongenomic pathway | 91.6 (±3.21) | E max values significantly higher than ATRA | significantly induced neurite outgrowth compared to ATRA; also recorded: even higher activity compared to EC23 and GZ25 | 2.3 |
| 13.6 | CC1(C)CCC(C)(C)c2cc(C#Cc3ccc(C(=O)O)nc3)ccc21 [Compound 24, 5-[2-(5,5,8,8-Tetramethyl-5,6,7,8-tetrahydronaphthalen-2-yl)ethynyl]pyridine-2-carboxylic Acid] | showed activity toward the nongenomic pathway | 59.7 (±3.34) |  | significantly induced neurite outgrowth compared to ATRA | 2.2 |
| 0.0532 | Cc1sc(-c2ccc(C(=O)O)cc2)nc1-c1cnc2c(n1)C(C)(C)CCC2(C)C [Compound 40, 4-[5-Methyl-4-(5,5,8,8-tetramethyl-5,6,7,8-tetrahydroquinoxalin-2-yl)-1,3-thiazol-2-yl]benzoic Acid] |  | 40.7 (±1.02) | E max values significantly lower than ATRA |  | 1.9 |
| 15.4 | Cc1sc(-c2ccc(C(=O)O)cn2)nc1-c1cnc2c(n1)C(C)(C)CCC2(C)C [Compound 41, 6-[5-Methyl-4-(5,5,8,8-tetramethyl-5,6,7,8-tetrahydroquinoxalin-2-yl)-1,3-thiazol-2-yl]pyridine-3-carboxylic Acid] |  | 55.26 (±0.00) | E max values significantly higher than ATRA |  | 1.7 |
| 12.5 | Cc1sc(-c2ccc(C(=O)O)c(F)c2)nc1-c1cnc2c(n1)C(C)(C)CCC2(C)C [Compound 42, 2-Fluoro-4-[5-methyl-4-(5,5,8,8-tetramethyl-5,6,7,8-tetrahydroquinoxalin-2-yl)-1,3-thiazol-2-yl]benzoic Acid] |  | 54.1 (±4.07) |  |  | 1.7 |
